What is called EC50 is the concentration needed to bring the measured effect to its halfway point.

One assay has as its target T1, RORγ-LBD (Homo sapiens, UniProt P51449).
T1 construct: made in house; host or cells: SF9 cells (baculovirus); used as diluted lysate
T1 sequence (P51449 269-508 limits assumed): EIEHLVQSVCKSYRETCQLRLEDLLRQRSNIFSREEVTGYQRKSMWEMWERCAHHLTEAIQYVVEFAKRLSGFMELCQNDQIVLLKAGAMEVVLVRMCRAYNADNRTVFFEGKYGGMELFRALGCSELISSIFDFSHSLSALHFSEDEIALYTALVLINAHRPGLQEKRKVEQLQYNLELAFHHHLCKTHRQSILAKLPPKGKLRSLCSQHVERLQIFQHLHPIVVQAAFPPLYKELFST
Put plainly: RORγ-Ligand Binding Domain (LBD) TR-FRET Assay.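 As to TR-FRET Assay Max Response: 665/615 nm signal ratio set to 100 without ursolic acid or test compound.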 In kind it is biochemical. Particulars: for TR-FRET Assay Max Response: maximum response. Put shortly:
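TR-FRET read-out using a biotin-tagged SRC1 coactivator LXXLL peptide (200 nM final), with the antagonist ursolic acid present at 2 μM final. Receptor is His-tagged LBD expressed in SF9 cells, ~3 nM final in pH 7.0 Tris/KCl/EDTA/DTT/BSA buffer; compounds in 1% DMSO final.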
In general terms: TR-FRET usually uses a lanthanide donor and a delayed reading to cut background.

A further assay deals with T2, Gal4-RORγ-LBD (Homo sapiens, UniProt P51449).
T2 construct: expressed in transfected cells
T2 sequence (P51449 269-508 limits assumed): T1 sequence (P51449 269-508 limits assumed)
The experiment in a line: Gal4-RORγ Luciferase Reporter Assay in HEK-293T Cells. The following applies: HEK-293 cells; for Gal4-RORγ Assay Max Response: maximum response. In kind it is cell-based. The gist of the method: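 Max Response was taken as the upper plateau of a 4-parameter logistic fit of luciferase signal, normalized to 100 for wells without ursolic acid or compound. Transiently Gal4-RORγ-LBD/Gal4-luc transfected HEK-293 cells carrying […] ursolic acid were incubated with test compounds (0.2% DMSO) overnight at 37 °C and read with One-Glo.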
On the technique in general: Reporter assays use an easily measured gene product as a stand-in for the process of interest.

Where [1] appears, read: luciferase reporter, in presence of ursolic acid.

Take `C/C(=C\c1ccc2c(c1)N(S(=O)(=O)c1cccc(C(F)(F)F)c1)C[C@H](CNC(=O)N(C)CCC(=O)O)O2)c1c(F)cccc1Cl` [Example 116P, (S,E)-3-(3-((6-(2-(2-chloro-6-fluorophenyl)prop-1-en-1-yl)-4-((3-(trifluoromethyl)phenyl)sulfonyl)-3,4-dihydro-2H-benzo[b][1,4]-oxazin-2-yl)methyl)-1-methylureido)propanoic acid]: the EC50 at RORγ-LBD (with 2 μM ursolic acid (RORγ antagonist), highest test concentration 10 μM) was less than 0.5 µM; on Gal4-RORγ-LBD (ursolic acid present, luciferase readout), less than 0.5 µM.
As for `C/C(=C\c1ccc2c(c1)N(S(=O)(=O)c1cccc(C(F)(F)F)c1)C[C@H](CCCN1CCCC1)O2)c1c(F)cccc1Cl` [Example 117, (S,E)-6-(2-(2-Chloro-6-fluorophenyl)prop-1-en-1-yl)-2-(3-(pyrrolidin-1-yl)propyl)-4-((3-(trifluoromethyl)phenyl)sulfonyl)-3,4-dihydro-2H-benzo[b][1,4]oxazine], on RORγ-LBD (RORγ-LBD TR-FRET assay), the EC50 is less than 0.5 µM and the “TR-FRET Assay Max Response” value is given as “*** (a value in the range of greater than 150 to 200)”. On Gal4-RORγ-LBD (setting [1]), the EC50 lay in the range of 0.5 to 5 µM and the “Gal4-RORγ Assay Max Response” value is given as “** (a value in the range of greater than 90 to 150)”.
As to `C/C(=C\c1ccc2c(c1)N(S(=O)(=O)c1cccc(C(F)(F)F)c1)C[C@H](CCN1CCCC1)O2)c1c(F)cccc1Cl` [Example 118, (S,E)-6-(2-(2-Chloro-6-fluorophenyl)prop-1-en-1-yl)-2-(2-(pyrrolidin-1-yl)ethyl)-4-((3-(trifluoromethyl)phenyl)sulfonyl)-3,4-dihydro-2H-benzo[b][1,4]oxazine], the figures for the EC50 on RORγ-LBD (RORγ-LBD TR-FRET assay) and on Gal4-RORγ-LBD (setting [1]) were less than 0.5 µM and 0.5 to 5 µM, respectively.
As to `C/C(=C\c1ccc2c(c1)N(S(=O)(=O)c1cccc(C(F)(F)F)c1)C[C@H](CCN1CCOCC1)O2)c1c(F)cccc1Cl` [Example 119A, (S,E)-6-(2-(2-chloro-6-fluorophenyl)prop-1-en-1-yl)-2-(2-morpholinoethyl)-4-((3-(trifluoromethyl)phenyl)sulfonyl)-3,4-dihydro-2H-benzo[b][1,4]oxazine], at RORγ-LBD (RORγ-LBD TR-FRET assay), the concentration for a half-maximal effect (EC50) is less than 0.5 µM and the “TR-FRET Assay Max Response” value is “**** (a value greater than 200)”. Moreover, on Gal4-RORγ-LBD (setting [1]), the EC50 was less than 0.5 µM and the “Gal4-RORγ Assay Max Response” value was “** (a value in the range of greater than 90 to 150)”.
As to `C/C(=C\c1ccc2c(c1)N(S(=O)(=O)c1cccc(C(F)(F)F)c1)C[C@H](CCCN1CCC(O)C1)O2)c1c(F)cccc1Cl` (stereo partly drawn) [Example 119B, 1-(3-((S)-6-((E)-2-(2-chloro-6-fluorophenyl)prop-1-en-1-yl)-4-((3-(trifluoromethyl)-phenyl)-sulfonyl)-3,4-dihydro-2H-benzo[b][1,4]-oxazin-2-yl)propyl)-pyrrolidin-3-ol], on RORγ-LBD (RORγ-LBD TR-FRET assay), the EC50 was less than 0.5 µM and the “TR-FRET Assay Max Response” value is “*** (a value in the range of greater than 150 to 200)”. On Gal4-RORγ-LBD (setting [1]), the EC50 was in the range of 0.5 to 5 µM and the “Gal4-RORγ Assay Max Response” value is “** (a value in the range of greater than 90 to 150)”.
With `C/C(=C\c1ccc2c(c1)N(S(=O)(=O)c1cccc(C(F)(F)F)c1)C[C@H](CCN1CCC(O)C1)O2)c1c(F)cccc1Cl` (stereo partly drawn) [Example 119C, 1-(2-((S)-6-((E)-2-(2-chloro-6-fluorophenyl)prop-1-en-1-yl)-4-((3-(trifluoromethyl)-phenyl)sulfonyl)-3,4-dihydro-2H-benzo[b][1,4]oxazin-2-yl)ethyl)pyrrolidin-3-ol], at RORγ-LBD (RORγ-LBD TR-FRET assay), the EC50 is less than 0.5 µM and the “TR-FRET Assay Max Response” value is “*** (a value in the range of greater than 150 to 200)”. Further, on Gal4-RORγ-LBD (setting [1]), the EC50 is 0.5 to 5 µM and the “Gal4-RORγ Assay Max Response” value is listed as “** (a value in the range of greater than 90 to 150)”.
Turning to `C/C(=C\c1ccc2c(c1)N(S(=O)(=O)c1cccc(C(F)(F)F)c1)C[C@H](CCCN1CCOCC1)O2)c1c(F)cccc1Cl` [Example 119D, (S,E)-6-(2-(2-chloro-6-fluorophenyl)prop-1-en-1-yl)-2-(3-morpholinopropyl)-4-((3-(trifluoromethyl)-phenyl)sulfonyl)-3,4-dihydro-2H-benzo[b][1,4]oxazine], on RORγ-LBD (RORγ-LBD TR-FRET assay), the EC50 was less than 0.5 µM and the “TR-FRET Assay Max Response” value is “*** (a value in the range of greater than 150 to 200)”. For the same molecule, on Gal4-RORγ-LBD (setting [1]), the EC50 was less than 0.5 µM and the “Gal4-RORγ Assay Max Response” value is on record as “** (a value in the range of greater than 90 to 150)”.
As to `CCOC(=O)C1CCN(CCC[C@H]2CN(S(=O)(=O)c3cccc(C(F)(F)F)c3)c3cc(/C=C(\C)c4c(F)cccc4Cl)ccc3O2)CC1` [Example 119E, ethyl (S,E)-1-(3-(6-(2-(2-chloro-6-fluorophenyl)prop-1-en-1-yl)-4-((3-(trifluoromethyl)phenyl)sulfonyl)-3,4-dihydro-2H-benzo[b][1,4]oxazin-2-yl)propyl)piperidine-4-carboxylate], on RORγ-LBD (RORγ-LBD TR-FRET assay), the concentration for a half-maximal effect (EC50) is less than 0.5 µM and the “TR-FRET Assay Max Response” value is on record as “*** (a value in the range of greater than 150 to 200)”. Moreover, at Gal4-RORγ-LBD (setting [1]), the EC50 fell in the range of 0.5 to 5 µM and the “Gal4-RORγ Assay Max Response” value is reported as “** (a value in the range of greater than 90 to 150)”.
On to `CCOC(=O)C1CCN(CC[C@H]2CN(S(=O)(=O)c3cccc(C(F)(F)F)c3)c3cc(/C=C(\C)c4c(F)cccc4Cl)ccc3O2)CC1` [Example 119F, ethyl (S,E)-1-(2-(6-(2-(2-chloro-6-fluorophenyl)prop-1-en-1-yl)-4-((3-(trifluoromethyl)phenyl)sulfonyl)-3,4-dihydro-2H-benzo[b][1,4]oxazin-2-yl)ethyl)piperidine-4-carboxylate], for which the EC50 on RORγ-LBD (RORγ-LBD TR-FRET assay) was less than 0.5 µM; on Gal4-RORγ-LBD (setting [1]), more than 10 µM. Moreover, the “TR-FRET Assay Max Response” value on RORγ-LBD (RORγ-LBD TR-FRET assay) is recorded as “*** (a value in the range of greater than 150 to 200)”.
As to `C/C(=C\c1ccc2c(c1)N(S(=O)(=O)c1cccc(C(F)(F)F)c1)C[C@H](CCN1CCS(=O)(=O)CC1)O2)c1c(F)cccc1Cl` [Example 119G, (S,E)-4-(2-(6-(2-(2-chloro-6-fluorophenyl)prop-1-en-1-yl)-4-((3-(trifluoromethyl)phenyl)sulfonyl)-3,4-dihydro-2H-benzo[b][1,4]oxazin-2-yl)ethyl)thiomorpholine 1,1-dioxide], at RORγ-LBD (RORγ-LBD TR-FRET assay), the EC50 was less than 0.5 µM and the “TR-FRET Assay Max Response” value was “*** (a value in the range of greater than 150 to 200)”. Besides, at Gal4-RORγ-LBD (setting [1]), the EC50 was less than 0.5 µM and the “Gal4-RORγ Assay Max Response” value is listed as “* (a value in the range of 30 to 90)”.
Regarding `C/C(=C\c1ccc2c(c1)N(S(=O)(=O)c1cccc(C(F)(F)F)c1)C[C@H](CCCN1CCS(=O)(=O)CC1)O2)c1c(F)cccc1Cl` [Example 119H, (S,E)-4-(3-(6-(2-(2-chloro-6-fluorophenyl)prop-1-en-1-yl)-4-((3-(trifluoromethyl)-phenyl)sulfonyl)-3,4-dihydro-2H-benzo[b][1,4]oxazin-2-yl)propyl)thiomorpholine 1,1-dioxide], on RORγ-LBD (RORγ-LBD TR-FRET assay), the EC50 was less than 0.5 µM and the “TR-FRET Assay Max Response” value is reported as “*** (a value in the range of greater than 150 to 200)”. In addition, at Gal4-RORγ-LBD (setting [1]), the EC50 was less than 0.5 µM and the “Gal4-RORγ Assay Max Response” value is “** (a value in the range of greater than 90 to 150)”.
As to `COc1cc(S(=O)(=O)N2C[C@H](CCC(C)(C)O)Oc3ccc(/C=C(\C)c4c(F)cccc4Cl)cc32)ccc1F` [Example 120, (S,E)-4-(6-(2-(2-Chloro-6-fluorophenyl)prop-1-en-1-yl)-4-((4-fluoro-3-methoxyphenyl)sulfonyl)-3,4-dihydro-2H-benzo[b][1,4]oxazin-2-yl)-2-methylbutan-2-ol], at RORγ-LBD (RORγ-LBD TR-FRET assay), the concentration giving a half-maximal response (EC50) was less than 0.5 µM and the “TR-FRET Assay Max Response” value is listed as “*** (a value in the range of greater than 150 to 200)”. Besides, on Gal4-RORγ-LBD (setting [1]), the EC50 is less than 0.5 µM and the “Gal4-RORγ Assay Max Response” value is “** (a value in the range of greater than 90 to 150)”.
As for `C/C(=C\c1ccc2c(c1)N(S(=O)(=O)c1cccc(C(F)(F)F)c1)C[C@H](CC(C)(C)O)O2)c1c(F)cccc1Cl` [Example 121A, (S,E)-1-(6-(2-(2-chloro-6-fluorophenyl)prop-1-en-1-yl)-4-((3-(trifluoromethyl)-phenyl)sulfonyl)-3,4-dihydro-2H-benzo[b][1,4]oxazin-2-yl)-2-methylpropan-2-ol], at RORγ-LBD (RORγ-LBD TR-FRET assay), the EC50 was less than 0.5 µM and the “TR-FRET Assay Max Response” value was “*** (a value in the range of greater than 150 to 200)”. Further, on Gal4-RORγ-LBD (setting [1]), the EC50 was less than 0.5 µM and the “Gal4-RORγ Assay Max Response” value was “** (a value in the range of greater than 90 to 150)”.
Regarding `C/C(=C\c1ccc2c(c1)N(S(=O)(=O)c1cccc(C(F)(F)F)c1)C[C@H](CCC(C)(C)O)O2)c1c(F)cccc1Cl` [Example 121B, (S,E)-4-(6-(2-(2-chloro-6-fluorophenyl)prop-1-en-1-yl)-4-((3-(trifluoromethyl)-phenyl)sulfonyl)-3,4-dihydro-2H-benzo[b][1,4]oxazin-2-yl)-2-methylbutan-2-ol], at RORγ-LBD (RORγ-LBD TR-FRET assay), the EC50 was less than 0.5 µM and the “TR-FRET Assay Max Response” value is “** (a value in the range of greater than 90 to 150)”. Further, at Gal4-RORγ-LBD (setting [1]), the EC50 was less than 0.5 µM and the “Gal4-RORγ Assay Max Response” value was “** (a value in the range of greater than 90 to 150)”.

The record behind these values is patent US9896441B2 (Lycera Corporation, priority 2014, dated 2018).
